Data as given in patent US10934255B2, “Nrf and HIF activators/HDAC inhibitors and therapeutic methods using the same” (THE BOARD OF TRUSTEES OF THE UNIVERSITY OF ILLINOIS, priority 2017, dated 2021).

What was measured:
Human HDAC1 = target: T1, Human HDAC1 (Homo sapiens, UniProt Q13547); test: HDAC1 inhibition assay (fluorogenic p53 peptide substrate); assay type: biochemical; details: Table 1; performed by Reaction Biology Corporation; read-out: HDAC isoform IC50 (nM) 1
T1 construct: Full length with C-terminal GST tag, MW=79.9 kDa; GST (C); host or cells: Sf9 insect cells (baculovirus)
Procedure: (§1) The HDAC1, 2, 4, 5, 6, 7, 8, 9, 10, and 11 assays used isolated recombinant human protein; HDAC3/NcoR2 complex was used for the HDAC3 assay. Substrate for HDAC1, 2, 3, 6, 10, and 11 assays is a fluorogenic peptide from p53 residues 379-382 (RHKKAc); substrate for HDAC8 is fluorogenic diacyl peptide based on residues 379-382 of p53 (RHKAcKAc). Acetyl-Lys(trifluoroacetyl)-AMC substrate was used for HDAC4, 5, 7, and 9 assays. Compounds were dissolved in DMSO and tested in 10-dose IC50 mode with 3-fold serial dilution starting at 30 μM. Control Compound Trichostatin A (TSA) was tested in a 10-dose IC50 with 3-fold serial dilution starting at 5 μM. IC50 values were extracted by curve-fitting the dose/response slopes. Assays were performed in duplicate and IC50 values are an average of data from both experiments.
Human HDAC1 (GenBank Accession No. NM_004964): Full length with C-terminal GST tag, MW=79.9 kDa, expressed by baculovirus expression system in Sf9 cells. Enzyme is in 50 mM Tris-HCl, pH 8.0, 138 mM NaCl, 20 mM glutathione, and 10% glycerol, and stable for >6 months at −80° C. Purity is >10% by SDS-PAGE. Specific Activity is 20 U/μg, where one U=1 pmol/min under assay condition of 25 mM Tris/Cl, pH8.0, 137 mM NaCl, 2.7 mM KCl, 1 mM MgCl2, 0.1 mg/ml BSA, 100 μM HDAC substrate, and 13.2 ng/μl HDAC1, incubation for 30 min at 30° C.
(§2) Substrate for HDAC1 and HDAC6: Acetylated peptide substrate for HDAC, based on residues 379-382 of p53 (Arg-His-Lys-Lys(Ac)), a site of regulatory acetylation by the p300 and CBP acetyltransferases (lysines 381, 382)1-6, is the best for HDAC from among a panel of substrates patterned on p53, histone H3 and histone H4 acetylation sites7.
(§3) Reaction Buffer: 50 mM Tris-HCl, pH 8.0, 137 mM NaCl, 2.7 mM KCl, 1 mM MgCl2, 1 mg/ml BSA.
HDAC1: 75 nM HDAC1 and 50 μM HDAC substrate are in the reaction buffer and 1% DMSO final. Incubate for 2 hours at 30° C.
(§4) All IC50 values are automatically calculated using the GraphPad Prism version 5 and Equation of Sigmoidal dose-response (variable slope): Y=Bottom+(Top−Bottom)/(1+10^((Log EC50−X)*HillSlope)), where X is the logarithm of concentration, Y is the response, Y starts at Bottom and goes to Top with a sigmoid shape. In most cases, “Bottom” is set 0, and “Top” is set “less than 120%”. This is identical to the “four parameter logistic equation”. IC50 curves also are drawn using the GraphPad Prism, and IC50 values and Hill slopes are provided.
(§5) HDAC Activity Assays: HDAC assay is performed using fluorescently-labeled acetylated substrate, which comprises an acetylated lysine side chain. After incubation with HDAC, deacetylation of the substrate sensitizes the substrate such that, in a second step, treatment with the detection enzyme produces a fluorophore. HDACs 1 and 6 were expressed as full length fusion proteins. Purified proteins were incubated with 50 μM fluorescently-labeled acetylated peptide substrate and test compound for 2 hours at RT in HDAC assay buffer containing 50 mM Tris-HCl (pH 8.0), 137 mM NaCl, 2.7 mM KCl, 1 mM MgCl2, 1% DMSO, and 1% BSA.
(§6) Reactions were terminated by the addition of the Developer after 2 hours, and the development of fluorescence signal, which was relative to the amount of deacetylated peptide, was monitored by time-course measurement of EnVision (PerkinElmer). The HDAC activity was estimated from the slope of time-course measurement of the fluorescence intensity. The slope of no-enzyme control (substrate alone) was served as background, and % Enzyme activity was calculated using background-subtracted slope of no inhibitor control (DMSO) as 100% activity.

Human HDAC6 = target: T2, Human HDAC6 (Homo sapiens, UniProt Q9UBN7); test: HDAC6 inhibition assay (fluorogenic p53 peptide substrate); assay type: biochemical; details: Table 1; performed by Reaction Biology Corporation; read-out: HDAC isoform IC50 (nM) 6
T2 construct: Full length with N-terminal GST tag, MW=159 kDa; GST (N); host or cells: Sf9 insect cells (baculovirus)
T2 sequence (Q9UBN7 1-1215): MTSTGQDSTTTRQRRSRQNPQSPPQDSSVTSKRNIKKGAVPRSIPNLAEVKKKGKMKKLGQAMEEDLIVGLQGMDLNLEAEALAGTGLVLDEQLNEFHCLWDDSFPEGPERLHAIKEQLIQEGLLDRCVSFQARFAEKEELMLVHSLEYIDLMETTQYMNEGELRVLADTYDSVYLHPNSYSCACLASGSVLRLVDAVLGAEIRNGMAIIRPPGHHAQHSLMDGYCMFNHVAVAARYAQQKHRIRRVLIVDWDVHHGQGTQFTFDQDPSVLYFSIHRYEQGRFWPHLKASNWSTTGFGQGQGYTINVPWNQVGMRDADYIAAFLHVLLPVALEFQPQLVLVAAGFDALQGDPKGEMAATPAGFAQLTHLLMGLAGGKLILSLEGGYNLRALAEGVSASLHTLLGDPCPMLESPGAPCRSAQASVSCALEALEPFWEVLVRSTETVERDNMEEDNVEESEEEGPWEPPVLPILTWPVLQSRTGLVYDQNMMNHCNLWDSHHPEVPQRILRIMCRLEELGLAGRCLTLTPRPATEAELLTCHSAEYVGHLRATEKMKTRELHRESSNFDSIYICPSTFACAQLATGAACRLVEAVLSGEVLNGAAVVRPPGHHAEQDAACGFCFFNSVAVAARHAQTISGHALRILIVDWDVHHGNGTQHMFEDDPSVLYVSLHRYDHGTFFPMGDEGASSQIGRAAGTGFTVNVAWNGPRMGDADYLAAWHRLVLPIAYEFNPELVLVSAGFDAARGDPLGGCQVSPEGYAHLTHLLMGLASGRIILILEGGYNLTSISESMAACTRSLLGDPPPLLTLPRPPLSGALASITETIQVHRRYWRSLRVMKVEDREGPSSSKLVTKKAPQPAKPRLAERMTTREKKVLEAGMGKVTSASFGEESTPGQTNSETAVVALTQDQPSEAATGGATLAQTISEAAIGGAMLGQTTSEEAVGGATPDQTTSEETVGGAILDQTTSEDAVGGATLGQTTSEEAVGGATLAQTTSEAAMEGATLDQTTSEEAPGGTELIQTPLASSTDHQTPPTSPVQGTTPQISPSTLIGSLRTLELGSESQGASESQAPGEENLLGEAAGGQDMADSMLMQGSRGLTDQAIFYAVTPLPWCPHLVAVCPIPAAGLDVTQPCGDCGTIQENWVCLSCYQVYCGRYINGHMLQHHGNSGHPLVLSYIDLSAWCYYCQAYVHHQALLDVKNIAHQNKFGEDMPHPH
Procedure: as §1
Human HDAC6 (GenBank Accession No. BC069243): Full length with N-terminal GST tag, MW=159 kDa, expressed by baculovirus expression system in Sf9 cells. Enzyme is in 50 mM Tris-HCl, pH 8.0, 138 mM NaCl, 20 mM glutathione, and 10% glycerol, and stable for >6 months at −80° C. Purity is >90% by SDS-PAGE. Specific Activity is 50 U/μg, where one U=1 pmol/min under assay condition of 25 mM Tris/Cl, pH8.0, 137 mM NaCl, 2.7 mM KCl, 1 mM MgCl2, and 0.1 mg/ml BSA, 30 μM HDAC substrate, and 5 ng/μl HDAC6, incubation for 60 min at 30° C.
as §2, §3
HDAC6: 12.6 nM HDAC6 and 50 μM HDAC substrate are in the reaction buffer and 1% DMSO final. Incubate for 2 hours at 30° C.
as §4, §5, §6

Nrf2 = Nrf2 activation, Neh2-luc reporter assay; assay type: cell-based; details: measured at 10 μM
Procedure: (§7) The present compounds were evaluated for an ability to activate Nrf2 and HIF-1α. Table 1 summarizes Nrf2 activation data obtained in Neh2-luc reporter assay; and HIF1 activation measured in ODD reporter assay.

HIF-1α = test: HIF1 activation, ODD reporter assay; assay type: cell-based; details: measured at 10 μM
Procedure: as §7

T1 sequence (Q13547 whole entry, canonical isoform): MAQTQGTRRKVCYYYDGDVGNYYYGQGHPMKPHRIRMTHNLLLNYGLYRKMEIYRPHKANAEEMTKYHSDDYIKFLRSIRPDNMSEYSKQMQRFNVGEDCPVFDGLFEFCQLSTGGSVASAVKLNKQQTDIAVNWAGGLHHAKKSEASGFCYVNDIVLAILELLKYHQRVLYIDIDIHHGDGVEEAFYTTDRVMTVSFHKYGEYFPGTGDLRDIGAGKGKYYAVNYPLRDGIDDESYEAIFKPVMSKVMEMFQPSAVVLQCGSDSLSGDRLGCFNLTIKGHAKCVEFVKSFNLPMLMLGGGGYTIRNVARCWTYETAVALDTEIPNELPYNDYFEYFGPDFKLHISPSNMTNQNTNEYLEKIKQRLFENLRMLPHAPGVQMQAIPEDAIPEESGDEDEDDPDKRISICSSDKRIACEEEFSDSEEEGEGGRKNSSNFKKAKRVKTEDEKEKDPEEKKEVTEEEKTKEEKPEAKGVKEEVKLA

| SMILES | IC50 (Human HDAC1) [nM] | IC50 (Human HDAC6) [nM] | fold induction at 10 µM (Nrf2) | fold induction at 10 µM (HIF-1α) | Nrf2 fold activation (Nrf2) [fold] | HIF-1α fold activation (HIF-1α) [fold] |
| --- | --- | --- | --- | --- | --- | --- |
| CC1(C)CN(Cc2ccc(C(=O)NO)cc2)c2ccccc21 [II-ING-65, 4-((3,3-Dimethylindolin-1-yl)methyl)-N-hydroxybenzamide] | 18700 | 24.5 | 1.8 | 2.8 | – | – |
| Cn1c(NCc2ccc(C(=O)NO)cc2)nc2cc(Cl)ccc21 [II-ING-85, 4-(((5-chloro-1-methyl-1H-benzo[d]imidazol-2-yl)amino)methyl)-N-hydroxybenzamide] | 1500 | 2.7 | 1.3 | 1.1 | – | – |
| O=C(NO)c1cccc(CN2C(=O)C(F)(F)c3ccccc32)c1 [II-ING-100, 3-((3,3-Difluoro-2-oxoindolin-1-yl)methyl)-N-hydroxybenzamide] | ≥ 30000 | 5560 | 1.5 | 1 | – | – |
| O=C(NO)c1ccc(CNc2nc3ccccc3n2-c2ccccc2)cc1 [II-ING-87, N-hydroxy-4-(((1-phenyl-1H-benzo[d]imidazol-2-yl)amino)methyl)benzamide] | 3230 | 13 | 1.2 | 1 | – | – |
| C[N+]1(C)CCC2(CC1)C(=O)N(Cc1ccc(C(=O)NO)cc1)c1ccccc12 [II-ING-118] | 7880 | 5.8 | 2 | 1.3 | – | – |
| O=C(NO)c1ccc(CN2CC3(CC3)c3cc(F)ccc32)cc1 [II-ING-68, 4-((5′-Fluorospiro[cyclopropane-1,3′-indolin]-1′-yl)methyl)-N-hydroxybenzamide] | 4700 | 8.2 | 6.2 | 5.8 | – | – |
| O=C(NO)c1ccc(CN2CCc3cc([N+](=O)[O-])ccc32)cc1 [II-ING-57, N-Hydroxy-4-((5-nitroindolin-1-yl)methyl)benzamide] | 1970 | 1.4 | 6.6 | 3.9 | – | – |
| O=C(NO)c1ccc(CN2CCc3ccc(OCc4ccccc4)cc32)cc1 [II-ING-61, 4-((6-(Benzyloxy)indolin-1-yl)methyl)-N-hydroxybenzamide] | 1850 | 25.2 | 2.2 | 7 | – | – |
| C[N+]1(C)CCC2(CC1)C(=O)N(Cc1ccc(C(=O)NO)cc1)c1ccccc12 [II-ING-109, 1-(4-(Hydroxycarbamoyl)benzyl)-1′,1′-dimethyl-2-oxospiro[indoline-3,4′-piperidin]-1′-ium] | 19700 | 18 | – | – | 1.5 | 1.0 |
| CC1(C)C(=O)N(Cc2ccc(C(=O)NO)cc2)c2ccccc21 [II-ING-101, 4-((3,3-Dimethyl-2-oxoindolin-1-yl)methyl)-N-hydroxybenzamide] | 7880 | 5.1 | 3.4 | 1 | – | – |
| O=C(NO)c1ccc(CN2CCc3cc(F)c(Cl)cc32)cc1 [II-ING-56, 4-((6-Chloro-5-fluoroindolin-1-yl)methyl)-N-hydroxybenzamide] | 7820 | 4.6 | 5.5 | 7.8 | – | – |
| O=C(NO)c1ccc(CN2CCc3cc(Cl)ccc32)cc1F [II-ING-51, 4-((5-Chloroindolin-1-yl)methyl)-2-fluoro-N-hydroxybenzamide] | – | 40.2 | 1.6 | 7.2 | – | – |
